Test results: patent US7361633B2, “Screening method and anti-tumor drug candidate obtained therefrom” (Ardana Bioscience Limited, priority 2002, dated 2008)
Entries after “also recorded” stand apart in the source; their conditions may differ. Square brackets hold non-standard residues; d marks the D form. Peptide text beside a SMILES is read from it. dPhe(4-Cl) = N[C@H](Cc1ccc(Cl)cc1)C(=O)O; d2Nal = N[C@H](Cc1ccc2ccccc2c1)C(=O)O; dCit = NC(=O)NCCC[C@@H](N)C(=O)O; d3Pal = N[C@H](Cc1cccnc1)C(=O)O; pGlu = O=C1CC[C@@H](C(=O)O)N1

Columns and labels:
[1] = system: androgen-resistant tumor cells; settings: compared with androgen-dependent prostate cancers; Jungwirth et al; cited from earlier work
[2] = system: PTX-sensitive/Gαi-dependent MAPK isoform activation; assay: PTX-sensitive/Gαi-dependent MAPK isoform activation (data not shown); type: cell-based
[3] = system: PLC-β; assay: Inositol phosphate accumulation in BPH-1 cells; type: cell-based, human
Experimental: BPH-1 cells were pre-incubated with ^3H-myoinositol (1 μCi/ml) for 48 h prior to ligand stimulation (60 minutes). Ligand stimulated inositol phosphate production was measured in the presence of 10 mM LiCl. […] IP accumulation can be used as a read out/marker for Gαq activation since the activation of PLCβ is PTX-resistant.

[4] = system: human JEG-3 choriocarcinoma cells; assay: Anti-proliferative effect on JEG-3 cells, viable cell count after 5 days; type: cell-based; settings: 5 days continuous treatment, trypan blue exclusion
Experimental: (§1) Low cell density JEG-3 cell subcultures were treated for 5 days continuously with the indicated doses of GnRH I (a), GnRH II (b), antagonist 135-18 (c) or antagonist 135-25 (d) added directly to Dulbecco's modified Eagles medium supplemented with 10% FCS, glutamine and penicillin/streptomycin. Ligands were replenished every 24 h. At the end of the stimulation period cells were removed from the growth plates with trypsin and mixed with trypan blue dye (enters non-viable cells). Only viable cells were therefore counted using a haemocytometer in quadruplicate for each ligand dose. The bars in each histogram represent the mean±s.e. mean of n=4 experiments.
(§2) Each cell type was plated at an initial minimal confluency (10-20%) to allow for 5 days of normal continual cell growth that would not result in 100% cell confluency by day 5. Each ligand was incubated, in triplicate for every experimental concentration, with the cell monolayers for five days with replacement of the ligand every 12 h. At the end of the stimulation period the number of viable cells was estimated by their capacity to prevent uptake of Trypan Blue stain.

[5] = system: ERK1/2; assay: ERK1/2 phosphorylation immunoblot in JEG-3 cells; type: cell-based, human; settings: 100 nM, 10 minutes
[6] = system: HEK293 cells stably expressing the Type I GnRHR (SCL60); assay: Anti-proliferative effect on SCL60 cells, viable cell count after 5 days; type: cell-based, human; settings: 5 days continuous treatment, trypan blue exclusion
Experimental: An identical methodology of measuring cell growth was employed as in FIG. 1.
as §2
We further investigated the nature of the ligand-receptor specificity of the anti-proliferative effects of GnRH receptor systems by studying our ligand panel effects upon a model cell background, i.e. SCL60 HEK293 cells stably expressing the rat Type I GnRHR. […] We attribute this greater effect of the GnRHR ligands upon the SCL60 cells to the much greater level of receptor expression in the SCL60 cells.

[7] = target: T1, marmoset Type II GnRH receptor (Callithrix jacchus, UniProt Q95MG6); assay: Inositol phosphate accumulation in αT4-II cells; type: cell-based; settings: GnRH II 10 nM
T1 construct: expressed in transfected cells
T1 sequence (Q95MG6 1-380): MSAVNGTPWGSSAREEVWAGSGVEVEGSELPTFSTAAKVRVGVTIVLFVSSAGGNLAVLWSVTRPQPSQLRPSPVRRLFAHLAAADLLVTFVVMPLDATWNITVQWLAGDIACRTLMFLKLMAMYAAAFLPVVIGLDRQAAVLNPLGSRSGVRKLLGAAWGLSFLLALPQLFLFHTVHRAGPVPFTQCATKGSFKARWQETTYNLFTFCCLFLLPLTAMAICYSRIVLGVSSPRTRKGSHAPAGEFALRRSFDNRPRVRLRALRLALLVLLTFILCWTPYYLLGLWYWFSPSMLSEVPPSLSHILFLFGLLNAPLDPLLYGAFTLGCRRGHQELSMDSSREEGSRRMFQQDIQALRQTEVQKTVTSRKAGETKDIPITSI
Experimental: The histograms in panels a and b represent inositol phosphate accumulation data from HEK293 cells stably expressing the Type I GnRH receptor only (SCL60). […] In panels c and d, the liberated inositol phosphates generated were measured in the proto-gonadotrope cells (αT4) stably expressing the marmoset Type II GnRH receptor (designated αT4-II).
The ability of the four major agents under study at activating ectopically expressed Type I or Type II GnRHR were tested (FIG. 12). The classical signal transduction cascade activated by GnRHR stimulation is the Gαq-PLC-β cascade. Both Type I and II receptor can stimulate the Gαq-PLC type-G-protein and activate PLC-β which cleaves phosphatidylinositol bisphosphate (PIP2) into inositol trisphosphate (IP3), other lower inositol phosphates (IPn) and diacylglycerol (DAG). The major function of IP3 is to elevate intracellular Ca^2+ while DAG causes the activation of specific PKC (protein kinase C) isoforms.
Panels a and b of FIG. 12 depict the generation of free cytoplasmic ^3H-myo-inositols on the plasma membranes of HEK293 cells expressing the Type I GnRHR and of αT4 gonadotropes expressing the marmoset Type II GnRHR. Prior to agonist stimulation the respective cells were incubated in inositol-free growth media supplemented with 1 μCi/ml ^3H-myoinositol for 48 h. G protein coupled receptor (GPCR)-induced activation of PLC-β results in the cleavage of PIP2 (incorporating tritium ^3H) into free lower inositol phosphates (IPns).

[8] = system: ERK1/2; assay: ERK1/2 phosphorylation immunoblot in BPH-1 cells; type: cell-based, human; settings: FIG. 5 panel c
From the text: The panel depicts a representative anti-phospho-ERK1/2 w-c lysate immunoblot of stimulated BPH-1 cell extracts. […] Each bar of the histogram represents the mean±s.e. mean of three to four experimental replicates. […] Panel c) depicts the extent of ERK1/2 activation in BPH-1 cells induced by stimulation with GnRH I, II, Ant 135-25 and Ant 135-18. […] Each bar of the histogram represents the mean± s.e. mean of three to four experimental replicates.

[9] = system: human benign prostate hyperplastic (BPH-1) cells; assay: Anti-proliferative effect on BPH-1 cells, viable cell count after 5 days; type: cell-based; settings: 5 days continuous treatment, trypan blue exclusion
Experimental: as §1, with “density BPH-1” for “density JEG-3”, “(b), Ant” for “(b), antagonist”, “or Ant” for “or antagonist”, “to RPMI 1640” for “to Dulbecco's modified Eagles”, “removed form” for “removed from”, “plates by” for “plates with”
as §2
Employing an identical growth and stimulation methodology to that described in the previous paragraph and in FIG. 1 we exposed the hyperplastic cell line, BPH-1, to the same panel of GnRH ligands and antagonistic analogues (FIG. 2). Reminiscent of FIG. 1 both endogenous GnRH agonists exert a similar mode of action with respect to their dose-dependent inhibition of BPH-1 cell growth over the five day stimulation period.

Row | Molecule | doses required to attenuate growth of androgen-resistant tumor cells [1] | potency at stimulating PTX-sensitive/Gαi-dependent MAPK isoform activation [2] | inositol phosphate accumulation ([3]; 60 minutes, 10 mM LiCl, doses up to 50 μM) | anti-proliferative effect (viable cell number) [4] | extent of ERK1/2 phosphorylation (activation) [5] | anti-proliferative effect (viable cell number) [6] | agonistic activity: liberated inositol phosphates at marmoset Type II GnRH receptor [7] | extent of ERK1/2 activation [8] | effect of pertussis toxin pre-incubation on induced inositol phosphate accumulation ([3]; PTX 200 ng/ml 16 h, GnRH I 50 μM) | anti-proliferative effect (viable cell number) [9]
1 | CC(=O)N[C@H](Cc1ccc2ccccc2c1)C(=O)N[C@H](Cc1ccc(Cl)cc1)C(=O)N[C@H](Cc1cccnc1)C(=O)N[C@@H](CO)C(=O)N[C@@H](Cc1ccc(O)cc1)C(=O)N[C@H](CCCNC(N)=O)C(=O)N[C@@H](CC(C)C)C(=O)N[C@@H](CCCNC(=N)N)C(=O)N1CCC[C@H]1C(=O)N[C@H](C)C(N)=O [Cetrorelix] (Ac-[d2Nal][dPhe(4-Cl)][d3Pal]SY[dCit]LRP[dA]-NH2) | considerably higher doses | significantly less potent than Ant 135-25 | – | – | – | – | – | – | – | –
2 | GnRH II: A second form of GnRH, identified in the mid-brain of many vertebrates ([pGlu]HWSHGWYPG-NH2; ends and bridges not checked; UniProt O43555 24-33, looked up) | – | – | poor activity; also recorded: small capacity to induce inositol phosphate accumulation | potent and dose-dependent anti-proliferative effect; also recorded: clear dose-response relationships for the inhibition of cellular growth | less effective | greater anti-proliferative efficacy; also recorded: less potent than GnRH I at arresting the SCL60 cell growth | yields an increase in free tritiated inositol phosphates; also recorded: results in a similar action to GnRH I upon the SCL60 cells | A similar pattern to JEG-3 of ligand activation | – | –
3 | lysophosohatidic acid [LPA] | – | – | – | failed to significantly attenuate the cell growth | – | – | – | – | insensitive to PTX pre-incubation; also recorded: completely insensitive to the pertussis toxin | failed to significantly attenuate the cell growth
